Measured values taken from US20060035212A1, “Molecules inhibiting hepatitis c virus protein synthesis and method for screening same” (Universte Joseph Fourier, priority 2002, published 2006).
“Also recorded” adds a separate entry of the source. Where two headings read alike, the source gives them in different places.

Legend:
[1] = tested on: HCV IRES-controlled Firefly luciferase synthesis in HeLa cells; assay: Bicistronic construct in HeLa cells: IRES-dependent (cap-independent) translation, Firefly luciferase; assay type: cell-based; details: for IRES specificity of translation inhibition (in words): IRES-dependent versus cap-dependent translation, HeLa cells; for inhibition at 2000 µM: 2 mM
Protocol: (§1) Bicistronic constructs consisting of a first cistron corresponding to the Renilla luciferase gene, followed by the IRES sequence, followed by a second cistron corresponding to the Firefly luciferase gene (pRluc-IRES-Fluc) are prepared in the following way. A plasmid pRL-SV40 (Promega) is linearized with Xba I and dephosphorylated. In parallel, the IRES is amplified with the Firefly luciferase gene by PCR, in the presence of complementary oligonucleotides containing the Xba I sites. The PCR products are then subcloned in plasmid pTrcHis2-TOPO (Invitrogen) in order to control the digestion. The ligation of the insert containing the IRES with the Firefly luciferase gene and the linearized vector pRL-SV40 is carried out using T4 DNA ligase (Biolabs).
(§2) 10^7 HeLa cells suspended in serum-free DMEM are transfected with 1 to 2.5 μg of plasmid pRluc-IRES-Fluc by electroporation at […] for 30 milliseconds using a Gene Pulser (BioRad). […] The Renilla luciferase activity (cap-dependent translation) and that of the Firefly luciferase (cap-independent=viral translation) in the cell lysates is measured and compared by means of the Dual-luciferase assay (Promega) and of a Lumat LB9507 luminometer (Berthold).

[2] = biological target: T1, p116 RRM/consensus sequence of region II of the HCV IRES complex (Homo sapiens, UniProt P55884); assay: In vitro screening assay: inhibition of binding of the RRM of p116 to the consensus sequence of region II of the IRES (nitrocellulose retention); design: species or system HCV (IRES RNA); eIF3 p116 RRM cDNA from HeLa cells; details: for inhibition of the formation of the RNA-protein complex (in words): 4 different concentrations tested
T1 construct: His6 (C); made in house; host or cells: E. coli BL21lysS
Protocol: (§3) Radiolabeled RNA fragments are obtained by in vitro transcription of the abovementioned templates in the presence of [α-32P]UTP. The RNA fragments are purified in a 6% acrylamide-urea gel and precipitated. The RNA pellets are taken up in 25 mM Tris-HCl, pH 7.4. In order to allow renaturation, the RNA was incubated at 65° C. in the abovementioned buffer for 5-7 min and then slowly cooled to ambient temperature. The renatured RNAs were incubated with increasing concentrations of protein in the same 25 mM Tris-HCl buffer, pH 7.4, at ambient temperature for 5 min.
The mixture of proteins and of RNA is then deposited onto a nitrocellulose membrane washed beforehand with the same buffer. The radioactivity of the filter containing the RNA-protein complexes was measured using a Trilux MicroBeta radioactivity counter (PerkinElmer). […]
The screening assay is carried out as follows. The RRM of p116 and the consensus sequence of region II are incubated in the presence of various aminoglycosides. The RNA mixture is then deposited onto a nitrocellulose membrane under the same conditions as in example 2.

[3] = tested on: cap-controlled Renilla luciferase synthesis in HeLa cells; assay: Bicistronic construct in HeLa cells: cap-dependent translation, Renilla luciferase; assay type: cell-based; details: for cap-dependent synthesis, % of control: 2.5 μg of pDNA (FIG. 9C)
Protocol: as §1, §2

entire IRES of HCV = assay: Affinity of the RRM of p116 for the whole IRES by retention on nitrocellulose; assay type: binding; details: 25 mM Tris-HCl pH 7.4, read-out: apparent Kd
Protocol: as §3
The mixture of proteins and of RNA is then deposited onto a nitrocellulose membrane washed beforehand with the same buffer. The radioactivity of the filter containing the RNA-protein complexes was measured using a Trilux MicroBeta radioactivity counter (PerkinElmer).

[4] = concentrations of 1, 2 and 5 mM

CN[C@@H]1[C@@H](O)[C@@H](O[C@@H]2[C@@H](O)[C@H](O[C@H]3O[C@H]([C@@H](C)O)[C@@H](O)[C@H](O)[C@H]3N)[C@@H](N)C[C@H]2N)OC[C@]1(C)O [G418]
IRES specificity of translation inhibition (in words) [1]: inhibit both the cap-dependent and IRES-dependent translation in an IRES-nonspecific manner

NC[C@H]1O[C@H](O[C@H]2[C@H](O)[C@@H](O[C@H]3O[C@H](CO)[C@@H](O)[C@H](N)[C@H]3O)[C@H](N)C[C@@H]2N)[C@H](O)[C@@H](O)[C@@H]1O [kanamycin A]
inhibition of the p116 RRM/II complex ([2]; 20 μM): 0% | inhibition of the p116 RRM/II complex ([2]; 40 μM): 0% | inhibition of the p116 RRM/II complex ([2]; 80 μM): 0%

NC[C@H]1O[C@H](O[C@H]2[C@H](O)[C@@H](O[C@H]3O[C@H](CO)[C@@H](O)[C@H](N)[C@H]3O)[C@H](N)C[C@@H]2N)[C@H](N)[C@@H](O)[C@@H]1O [kanamycin B]
inhibition of the p116 RRM/II complex ([2]; 20 μM): 22%

NC[C@@H]1O[C@H](O[C@H]2[C@@H](O)[C@H](O[C@@H]3[C@@H](O)[C@H](N)C[C@H](N)[C@H]3O[C@H]3O[C@H](CO)[C@@H](O)[C@H](O)[C@H]3N)O[C@@H]2CO)[C@H](N)[C@@H](O)[C@@H]1O [paramomycin]
IRES specificity of translation inhibition (in words) [1]: moderately IRES-specific | inhibition of IRES-dependent translation [1, 4]: 37% | inhibition of cap-dependent translation [3, 4]: 6.3%

[H]/N=C(/N)N[C@H]1[C@H](O)[C@@H](O)[C@H](O[C@@H]2O[C@@H](C)[C@](O)(C=O)[C@H]2O[C@@H]2O[C@@H](CO)[C@H](O)[C@@H](O)[C@@H]2NC)[C@@H](N/C(N)=N\[H])[C@@H]1O [streptomycin]
inhibition at 20 µM ([2]; 20 μM): 25% | inhibition at 40 µM ([2]; 40 μM): 36% | inhibition of the formation of the RNA-protein complex (in words) [2]: inhibit the formation of the RNA-protein complex at all the concentrations tested | IRES specificity of translation inhibition (in words) [1]: inhibits the translation of the two cistrons in an IRES-nonspecific manner

NC[C@H]1O[C@H](O[C@H]2[C@H](O)[C@@H](O[C@H]3O[C@H](CO)[C@@H](O)[C@H](N)[C@H]3O)[C@H](N)C[C@@H]2N)[C@H](N)C[C@@H]1O [tobramycin]
inhibition at 20 µM ([2]; 20 μM): 43% | inhibition at 40 µM ([2]; 40 μM): 54% | inhibition of the formation of the RNA-protein complex (in words) [2]: inhibit the formation of the RNA-protein complex at all the concentrations tested; also recorded: capable of dissociating the p116/II complex in vitro, at all the concentrations tested | inhibition at 1000 µM ([1]; Hepatitis C virus, HeLa, read-out: inhibition of the synthesis of the Firefly luciferase controlled by the IRES): 90.4% | inhibition at 2000 µM ([1]; Hepatitis C virus, HeLa, 1 μg of plasmid DNA (FIG. 9B), read-out: inhibition of IRES-luciferase synthesis): 83% | inhibition at 2000 µM ([1]; Hepatitis C virus, HeLa, 2.5 μg of pDNA (FIG. 9C), read-out: inhibition of the IRES-dependent translation): 36.5% | inhibition at 5000 µM ([1]; Hepatitis C virus, HeLa, 5 mM, 2.5 μg of pDNA (FIG. 9C)): 69% | IRES specificity of translation inhibition (in words) [1]: the most specific inhibitor of the IRES-controlled translation | synthesis of the Renilla luciferase (cap-controlled), % of the control ([3]; 1 mM, 1 μg of plasmid DNA (FIG. 9B)): 168 % of the control | cap-dependent synthesis, % of control ([3]; 2 mM): 268 % of control | cap-dependent synthesis, % of control ([3]; 5 mM): 134 % of control | inhibition at 2000 µM ([3]; Renilla, HeLa, 2 mM, 1 μg of plasmid DNA (FIG. 9B)): 27%

B1: RRMp116: recombinant RNA recognition motif of the eIF3 p116 subunit (SEQ ID 5), C-terminal His6-Tag (protein)
chain: MDRPQEADGIDSVIVVDNVPQVGPDRLEKLKNVIHKIFSKFGKITNDFYPEEDGKTKGYIFLEYASPAHAVDAVKNADGYKLDKQHTFRVNLFTDFDKYMTISDEW
modifications: C-terminal His6 tag; p116 175..279 corresponds to a portion (RRM) of eIF3 p116 subunit
Kd (entire IRES of HCV): 800 nM
